From patent US20210387983A1, “CRYSTALLINE ALK5 INHIBITORS AND USES THEREOF” (THERAVANCE BIOPHARMA R&D IP, LLC, priority 2020, published 2021)

What was measured:
[1] = In vitro human liver microsome intrinsic clearance (HLM Clint); format: in vitro ADME; details: liver microsomes, pH 7.4, 0.1 μM test compound, 0.1 mg/mL protein, 1 mM NADPH, 37° C.
Experimental: Liver microsomes were used for in vitro determination of hepatic clearance of the compound of Formula I. A microsomal incubation cofactor solution was prepared with 100 mM potassium phosphate buffered to pH 7.4 (BD Biosciences, Woburn, Mass.) supplemented with 2 mM NADPH (Sigma-Aldrich, St. Louis, Mo.). 10 mM DMSO stocks of test compound were diluted and spiked into the cofactor solution to yield a 0.2 μM concentration (0.02% v/v DMSO). Aliquots of frozen human liver microsomes (Bioreclamation IVT, Baltimore Md.) were thawed and diluted into 100 mM potassium phosphate buffer to yield microsomal protein concentrations of 0.2 mg/mL. Cofactor/drug and microsomal solutions were pre-warmed separately for 4 minutes in a water bath held at 37° C. Incubations (n=1) were started by the combination of equal volumes of cofactor/drug solution with microsomal solution. The final concentration of test compound was 0.1 μM with a final protein concentration of 0.1 mg/mL and final NADPH concentration of 1 mM. Samples were collected at times 0, 3, 8, 15, 30, and 45 minutes to monitor the disappearance of test compound. At each time point, 50 μL of incubation sample was removed and spiked into 25 μL of water plus 3% formic acid plus Internal Standard for reaction termination. Samples were then injected onto an AB Sciex API 4000 triple quadrupole mass spectrometer for quantitation by LC-MS/MS. […]

[2] = test system: syngeneic cancer models (4T1 cells, CT26 cells); assay: Efficacy study in syngeneic cancer model (4T1 or CT26 cells); format: in vivo, BALB/c mice
Description: The compound of Formula I is expected to suppress tumor growth in syngeneic cancer models when administered alone or in combination with an immunotherapeutic agent. Six- to 8-week old BALB/c mice are used for in vivo efficacy studies in accordance with IACUC guidelines. Commercially available 4T1 cells (0.5-2.0×10^4 cells/mouse) are implanted subcutaneously into the right flanks of BALB/c mice. When the tumor reaches a palpable size of approximately 8-10 mm in diameter, the primary tumors are surgically removed, and the mice are randomly assigned to vehicle control or compound treatment groups. Alternatively, CT26 cells (0.5-2.0×10^4 cells/mouse) are injected intravenously into BALB/c mice to generate the cancer model. […]
Body weight is measured twice weekly. Following 2- to 4-weeks of treatment, the lung and liver of each animal is harvested, and the number of metastatic cells in each tissue sample determined using a clonogenic metastasis assay. […]

[3] = test system: DSS-induced intestinal fibrosis; assay: Efficacy study in murine DSS-induced intestinal fibrosis model; format: in vivo, C57BL/6J mice; details: oral gavage following the second of the 3 cycles of DSS; sacrifice at 6, 9 or 12 weeks
Experimental: The compound of Formula I is expected to slow, halt or reverse the progression of intestinal fibrosis in a murine colitis model. Six to 8-week old male C57BL/6J mice are tagged and weighed. The drinking water of the animals is treated with 2.5% dextran sulfate sodium (DSS) for 7 days to induce acute colitis, followed by 2 days of normal drinking water. Three, 3-week cycles of 2.5% DSS treatment (1 week of 2.5% DSS in water; 2 weeks of normal water) are then completed to induce intestinal fibrosis. Following the second of the 3 cycles of DSS administration, mice are treated with either vehicle control or the compound of Formula I at an appropriate amount and frequency via oral gavage (e.g., once daily). Animals are sacrificed at either 6, 9 or 12 weeks after the first DSS cycle, then distal, mid and proximal sections of the colon harvested for histologic analysis, RNA extraction and cytokine measurement.

SMILES: C[C@@H]1CN(CCNc2cnc3ccc(-c4nc[nH]c4-c4cc(Cl)ccc4F)nc3c2)C[C@H](C)N1 [compound of Formula I, 6-(5-(5-chloro-2-fluorophenyl)-1H-imidazol-4-yl)-N-(2-((3S,5R)-3,5-dimethylpiperazin-1-yl)ethyl)-1,5-naphthyridin-3-amine]
- microsomal CLint at 0.1 μM [1]: > 250 µL/min/mg
- lung tumor burden in combination with an immunotherapeutic agent ([2]; combination with immunotherapeutic agent (e.g., pembrolizumab or durvalumab), relative to either single agent alone): increased reduction in lung tumor burden
- lung tumor burden ([2]; compound alone, oral aspiration or intranasally, 2- to 4-weeks of treatment): reduction in lung tumor burden
- intestinal fibrosis [3]: slow, halt or reverse intestinal fibrosis
